Assay results published in PubChem BioAssay AID493102 (Broad Institute, 2011).

system: SK-MEL-5 TRPM1-promoter luciferase reporter, 24 h; experiment: reducers of TRPM1 reporter luminescence, concentration series – cell-based, SK-MEL-5, cherry-picked, set 4, MITF inhibitor project, dose response (AID 493102);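 also: actives lower the luciferase signal so the potency reflects inhibition of reporter expression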

SMILES	AC50 [µM]
Cc1[nH]nc2nc(SCC(=O)NCCC3=CCCCC3)n(-c3ccc(Br)cc3)c(=N)c12	2.46
Nc1c(N(CCC2=CCCCC2)C(=O)COc2ccc([N+](=O)[O-])cc2)c(=O)[nH]c(=O)n1Cc1ccccc1	14.2
C=CCn1c(C)cc(C(=O)CN2C(=O)c3ccccc3S2(=O)=O)c1C	0.666
CCN1CCCC1CNC(=O)c1ccc2c(c1)NC(=O)/C(=C\c1ccc(OC)c(OC)c1)S2 (stereo not drawn)	13.8
Cc1cc(-n2c(C)cc(C(=O)CCl)c2C)no1	5.5
Cc1ccc(C(=O)c2cccc(N)c2)cc1C	3.62
O=C(NC1CCCCC1)C(c1cccnc1)N(C(=O)CCl)c1cccc(Cl)c1 (stereo not drawn)	4.16
O=C(Nc1ccc2nc3n(c(=O)c2c1)CCCCC3)c1cc([N+](=O)[O-])ccc1F	10.7
NC(=O)C1CCN(C2=C(NS(=O)(=O)c3ccc(Br)cc3)C(=O)c3ccccc3C2=O)CC1	11.9
O=C(COC(=O)c1ccc[nH]c1=O)Nc1ccc(N2CCCCC2)cc1	1.03
N/C(=N\OC(=O)c1ccccc1Cl)c1ccccn1	8.87
CN(C)c1ccc(NC(=S)c2ccccn2)cc1	2.84
O=C(N/N=C/c1ccc(O)c2ncccc12)c1cccc(Br)c1	7.28
Cc1ccc(C(=O)c2no[n+]([O-])c2C(=O)c2ccc(C)cc2)cc1	16.7
Cc1ccccc1C(=O)N/N=C/c1ccc([N+](=O)[O-])s1	1.88
Cc1cc(NC(=O)c2cncc(Br)c2)ccc1NC(=O)c1cc2ccccc2o1	10.4
O=C(Nc1ccc(Cl)cc1)Nc1cccc(C(=O)O)c1	3.79
COc1cccc(CNCCc2c[nH]c3ccccc23)c1OCc1ccccc1	14.4
N#C/C(=C\c1ccc(OCc2ccc(C(=O)O)cc2)cc1)C(=O)N1CCOCC1	1.19
CCOC(=O)/C=c1/s/c(=C/c2ccc3cc(OC)ccc3c2)c(=O)n1CC(=O)NCC1CCCO1 (stereo not drawn)	6.79
Cc1ccc(-c2cc3onc(-c4ccccc4)c3c(=O)n2C)cc1	9.77
CN(Cc1ccccc1)C1=CC(=[N+]2CCCCC2)CC(C)(C)C1	2.46
COc1ccc(/C=C2\SC(=S)N(CCCC(=O)NNC(=O)c3ccccc3O)C2=O)cc1	1.38

SMILES	AC50 [µM]
CCn1c(/C=C/Nc2ccccc2)[n+](CC)c2cc(Cl)c(Cl)cc21	14.5
Cn1cc([N+](=O)[O-])c(C(=O)Nc2cc(Oc3ccccc3)cc([N+](=O)[O-])c2)n1	12.4
COC(=O)C1=C(CN2CCCc3ccccc32)NC(=O)NC1c1ccc(F)cc1 (stereo not drawn)	2.16
CC(=O)OCCCNc1cc(Sc2ccc(Cl)cc2)c2nonc2c1[N+](=O)[O-]	10.9
CCOc1ccc(-n2c(-c3ccc(Br)cc3)c[n+]3c2CCCCC3)cc1	3.87
CCC(=O)NC(c1ccccc1OC)c1ccc2cccnc2c1O (stereo not drawn)	6.7
CCOC(=O)CSC1=NC(=O)/C(=C/c2ccc(OC)cc2)S1	3.98
Cc1cc(C)c(C#N)c(SCc2nnc(-c3ccccc3)o2)n1	0.024
COc1ccc2nc(N3CCN(C(=O)c4ccc([N+](=O)[O-])o4)CC3)sc2c1	5.81
CCOC(=O)c1ccc2c(c1)n(CC)c(/C=C/N(C)c1ccccc1)[n+]2CC	3.24
CCOc1cc(/C=N/Nc2cccc(C(=O)O)c2)ccc1OC(=O)c1ccccc1	1.38
CC1CC(C)CN(C(=O)/C=C/c2ccc([N+](=O)[O-])s2)C1 (stereo not drawn)	11.9
COc1cccc(/C=C2/Sc3ccc(C(=O)NCCN4CCCC4)cc3NC2=O)c1	17.9
Cc1ccc(-c2c[n+](Cc3ccc(Cl)c(Cl)c3)c3n2CCC3)cc1	3.73
Oc1c(CN2CCCCC2)cc(COCc2ccccc2)c2cccnc12	2.17
COc1cc(C2C(C#N)=C(N)Oc3cc4c(cc32)OCO4)cc(OC)c1OC (stereo not drawn)	0.365
O=C(CCl)N1c2ccccc2CCc2ccccc21	5.54
OCC1OC(n2cnc3c(NCc4ccco4)ncnc32)C(O)C1O (stereo not drawn)	3.88
O=C(Nc1ccccc1N1CCOCC1)c1ccc([N+](=O)[O-])s1	12.3
COc1ccc(C(=O)C(CN2CCOCC2)c2ccccc2)cc1 (stereo not drawn)	7.29
COc1ccc(N/N=C/c2c(C(=O)O)ccc3ccccc23)cc1	5.11
O=C(Nc1ccc(OC(=O)N2CCCCC2)cc1)N1CCOCC1	27.4
O=C1NC(=O)C(=Cc2ccc(-c3ccc(Cl)cc3)o2)C(=O)N1	9.2

SMILES	AC50 [µM]
O=C(O)/C=C/C(=O)c1ccc2c(c1)CCc1ccccc1-2	15
CCOc1c(Br)cc(CNC2CCCCCCC2)cc1OC	20.5
Cc1ccccc1Cn1c(=N)n(CC(=O)c2ccc([N+](=O)[O-])cc2)c2ccccc21	5.63
COc1cc(/C=C/C(=O)N2CCC=CC2=O)cc(OC)c1OC	7.4
N=c1n(CC(=O)c2ccc(Br)s2)c2ccccc2n1Cc1ccccc1	7.34
Cn1c(SCC(=O)N/N=C/c2ccc([N+](=O)[O-])s2)nnc1-c1ccccc1	4.28
O=C(CSCC(=O)Nc1ccccc1)N/N=C/c1c(O)ccc2ccccc12	3.33
CC(=O)N(C)C1=C(N2CCOCC2)C(=O)c2ccccc2C1=O	3.5
CN(C)c1nc(C=C(C#N)C#N)c(Cl)n1-c1ccc(F)cc1	3.92
Cc1scc(C(=O)N/N=C/c2ccc([N+](=O)[O-])o2)c1C	2.19
COCCNC(=O)/C(C#N)=C/c1cccc(/C=C(\C#N)C(=O)NCCOC)c1	12.7
CCc1ccc(NC2=CC(=O)C(=O)c3ccccc32)cc1	3.59
CCOC(=O)CSC1=NC(=O)/C(=C\c2ccc(OC(C)=O)cc2)S1	5.13
CC(/C=C1\SC(=O)N(CCCC(=O)O)C1=O)=C\c1ccccc1	2.36
Cn1c(SC2=CS(=O)(=O)c3ccccc32)nc2ccccc21	6.72
Cc1ccc(Cn2c(=N)n(CC(=O)c3ccc([N+](=O)[O-])cc3)c3ccccc32)cc1	6.42
CCN(CCO)c1ccc(N=Nc2cc(C)[nH]n2)cc1	3.6
C[C@H]1CCC[C@]2(C)C[C@H]3OC(=O)C(CN4CCCCCC4)[C@H]3C=C12 (stereo partly drawn)	13.9
N=c1n(Cc2ccc(Cl)cc2)c2ccccc2n1CC(O)COc1ccccc1 (stereo not drawn)	9.25
COCCN(CC(=O)NC1CCCCC1)C(=O)/C=C/C(=O)c1ccc(OC)cc1O	5.48
Cc1cc(C(=O)CSc2nnc3ccccn23)c(C)n1-c1ccccc1	2.08
O=[N+]([O-])c1cc(Cl)cc(/C=N\Nc2ccccn2)c1O	4.49
COc1ccc(C(=O)/C(C#N)=N/Nc2ccc([N+](=O)[O-])cc2)cc1	8.26

SMILES	AC50 [µM]
CC(=O)Nc1ccc(S(=O)(=O)N2CCn3cccc3C2C)cc1 (stereo not drawn)	28.7
O=C1C=C(N(CCO)Cc2ccccc2)c2ccccc2C1=O	4.78
S=C=Nc1cccc(C2(N3CCCCC3)CCCCC2)c1	7.36
CC1(C(=O)N/N=C/c2ccc([N+](=O)[O-])o2)CC1(Br)Br (stereo not drawn)	10.3
O=C(N/N=C/c1ccc([N+](=O)[O-])s1)c1ccccc1	2.29
Cc1ccc(NC(=O)CN(C)C(=O)Cn2ncc(Cl)c(Cl)c2=O)cc1	9.16
Cc1c(NC(=O)C(C)OC(=O)c2ccc([N+](=O)[O-])s2)c(=O)n(-c2ccccc2)n1C (stereo not drawn)	34.1
O=C(Nc1ccc2oc(-c3cccnc3)nc2c1)c1ccc([N+](=O)[O-])o1	14.2
CC(=O)N1CCc2c(sc(NC(=O)c3ccc([N+](=O)[O-])o3)c2C#N)C1	2.22
Cc1ccc(NC(=O)c2cc3ccccc3oc2=O)cc1S(=O)(=O)N(C)C	0.03
CS(=O)(=O)c1ncc(Cl)c(C(=O)Nc2ccc(N3CCOCC3)cc2)n1	22.8
CCOc1ccc2nc(C)cc(Nc3cccc([N+](=O)[O-])c3)c2c1	17.8
COCCn1c(C)cc(C(=O)COC(=O)c2ccccc2Br)c1C	1.14
CC1CN(C(=O)CCC(=O)NCCCN2CCC(Cc3ccccc3)CC2)c2cc(Cl)ccc2O1 (stereo not drawn)	16.2
CC(C)Oc1ccc(C(CCN)C2CCCCC2)cc1 (stereo not drawn)	9.99
Cc1ccc(NCC(=O)N/N=C\c2ccc([N+](=O)[O-])o2)cc1	19.1
CCCCn1c(=N)n(CCOc2ccc(C)cc2)c2ccccc21	11.3
O=C(NCc1cccs1)c1nc2c(nnn2Cc2ccccc2Cl)c(=O)[nH]1	6.66
O=C(CNC(=O)c1cccc(F)c1)N/N=C/c1ccc([N+](=O)[O-])s1	7.45
CCSc1ccccc1C(=O)n1nnc2ccccc21	11.8
O=C(/C=C\c1ccccc1)NCC(=O)N/N=C/c1ccc(O)cc1O	7.99
CN(C)C1CCN(Cc2cc(COCc3ccccc3)c3cccnc3c2O)C1 (stereo not drawn)	9.99
CN(C)CC1CC/C(=C\c2ccc(O)cc2)C1=O (stereo not drawn)	12.9

SMILES	AC50 [µM]
O=[N+]([O-])c1cccc2c(N3CCCC3)ccnc12	2.47
CC1CC(C)C[N+](=C2C=C(N3CCCC3)CC(C)(C)C2)C1 (stereo not drawn)	2.24
O=[N+]([O-])c1ccc(/C=N/n2cnc3ccccc32)s1	6.25
Cc1nn(-c2ccccc2Cl)c(Cl)c1/C=N/Nc1cccc(C(=O)O)c1	5.5
CCN1CCN(CCCNC(=O)c2ccc3c(c2)NC(=O)/C(=C\c2cccc(C)c2)S3)CC1	9.93
N#Cc1c(NC(=O)CSc2ncn[nH]2)sc2c1CCCC2	0.599
CCOC(=O)CCc1ccc(NC(=O)/C=C/c2ccc([N+](=O)[O-])o2)cc1	6.83
Cc1ccc(C)c(C(=O)Cn2ncc(Cl)c(Cl)c2=O)c1	14.5
CCOC(=O)N1C(=O)[C@](CC)(c2ccccc2)N1C(=O)OCC	10
O=C(Nc1cc(-c2nc3ncccc3o2)ccc1Cl)c1ccc([N+](=O)[O-])o1	5.76
O=C(CNc1cccc([N+](=O)[O-])c1)N/N=C/c1ccc([N+](=O)[O-])o1	8.63
O=C(O)c1ccc(N/N=C/c2ccc3nccnc3c2)cc1	0.696
Cc1ccc(C(=O)N/N=C/c2ccc([N+](=O)[O-])s2)cc1	2.2
NCCCNc1nc(N)c([N+](=O)[O-])c(NC2CCCCC2)n1	6.36
CCCCCCN1C=CC(=C2C(=O)c3ccccc3C2=O)C=C1	3.86
CCOC(=O)c1c(C)oc2c1C(=O)c1ccccc1C2=O	3.18
Cc1cc(C(C)(C)C)cc(C)c1Cn1c2[n+](c3ccc(C(F)(F)F)cc31)CCCCC2	7.55
Cc1ccc(NC(=O)CCl)cc1S(=O)(=O)N1CCCCCC1	7.55
CCOC(=O)c1c(NC(C)=O)sc2c(OCC(O)CNC(C)(C)C)c(Br)ccc12 (stereo not drawn)	7.72
CCN1CCN(c2ccc(Nc3ccnc4ccccc34)cc2)CC1	12.3
CN(C)c1nc(-c2ccccn2)nnc1-c1ccccc1	6.17
